According to DBAASP:
Converted amounts (≈) assume the structure as drawn. One block for each molecule: values may come before it.

Experiments:
Assay in all cases: ≥ marks a high value that may be exact or a test limit, other limits are often not marked, values filed in µg/mL are converted to µM
[1] = system: Klebsiella aerogenes ATCC 13048
[2] = system: Klebsiella pneumoniae ATCC 700603
[3] = system: Lacticaseibacillus casei ATCC 334
[4] = system: Listeria monocytogenes ATCC 7611
[5] = system: Micrococcus luteus ATCC 14452
[6] = system: Saccharomyces cerevisiae ATCC 204508
[7] = system: Staphylococcus aureus ATCC 29213
Escherichia coli 078 = system: Escherichia coli 078
[8] = system: Escherichia coli ATCC 25922
Escherichia coli UB1005 = system: Escherichia coli UB1005
[9] = system: Lacticaseibacillus rhamnosus 7469
[10] = system: Pseudomonas aeruginosa ATCC 27853
[11] = system: Salmonella enterica subsp. enterica serovar Pullorum ATCC 7913
[12] = system: Salmonella enterica subsp. enterica serovar Typhimurium ATCC 14028
[13] = system: Salmonella enterica subsp. enterica serovar Typhimurium C77-31
[14] = system: Staphylococcus aureus ATCC 25923
[15] = system: Staphylococcus epidermidis ATCC 12228
[16] = system: Streptococcus agalactiae CICC 10465
Streptococcus agalactiae = system: Streptococcus agalactiae
[17] = system: Streptococcus thermophilus YM-C
[18] = system: Acinetobacter baumannii ATCC 19606
[19] = system: Candida albicans ATCC 90028
[20] = system: Cryptococcus neoformans ATCC 208821
[21] = system: Staphylococcus aureus ATCC 43300
[22] = system: Staphylococcus aureus SH1000
Escherichia coli TOP 10 = system: Escherichia coli TOP 10
[23] = system: Candida albicans ATCC 14053
[24] = system: Candida glabrata ATCC 2001
Candida krusei ATCC 6258 = system: Candida krusei ATCC 6258
[25] = system: Candida parapsilosis ATCC 22019
Escherichia coli = system: Escherichia coli
[26] = system: Staphylococcus aureus ATCC BAA-1683
[27] = system: Salmonella enterica subsp. enterica serovar Enteritidis
Salmonella sp. = system: Salmonella sp.
Yersinia enterocolitica = system: Yersinia enterocolitica
[28] = system: Candida albicans FRR 5580
[29] = system: Pseudomonas aeruginosa ATCC 9027
[30] = system: Bifidobacterium longum subsp. infantis
Staphylococcus aureus = system: Staphylococcus aureus

Compound: CC[C@H](C)[C@H](NC(=O)[C@H](CC(C)C)NC(=O)[C@@H](NC(=O)[C@@H](N)CC(=O)O)[C@@H](C)CC)C(=O)N[C@H](C(=O)N[C@H](C(=O)NCC(=O)NCC(=O)N[C@@H](CCCCN)C(=O)N[C@@H](CCC(=O)O)C(=O)N[C@@H](CCCN=C(N)N)C(=O)N[C@@H](CCCCN)C(=O)N[C@@H](CCCCN)C(=O)N[C@@H](CCCN=C(N)N)C(=O)N[C@@H](CCCN=C(N)N)C(=O)N[C@@H](CCCN=C(N)N)C(N)=O)C(C)C)[C@@H](C)CC [DILIIVGGKERKKRRR]
MIC (Escherichia coli 078): ≥ 64 µM | MIC [8]: > 64 µM | MIC (Escherichia coli UB1005): ≥ 64 µM | MIC [9]: ≥ 64 µM | MIC [10]: > 64 µM | MIC [11]: ≥ 64 µM | MIC [12]: > 64 µM | MIC [13]: ≥ 64 µM | MIC [14]: > 64 µM | MIC [7]: > 64 µM | MIC [15]: > 64 µM | MIC [16]: 4 µM (≈ 7.75 µg/mL) | MIC (Streptococcus agalactiae): 4 µM (≈ 7.75 µg/mL) | MIC [17]: ≥ 64 µM

Compound: CC[C@H](C)[C@H](NC(=O)[C@H](CCCCN)NC(=O)[C@H](CO)NC(=O)[C@H](Cc1ccccc1)NC(=O)[C@H](CC(C)C)NC(=O)[C@H](CCCCN)NC(=O)[C@H](CCCCN)NC(=O)[C@H](CC(C)C)NC(=O)CN)C(=O)N[C@@H](CCCCN)C(=O)N[C@H](C(=O)N[C@H](C(=O)NCC(=O)N[C@@H](CO)C(=O)N[C@@H](C)C(=O)N[C@@H](CC(C)C)C(=O)N[C@@H](CCCCN)C(=O)N[C@@H](CC(N)=O)C(=O)N[C@@H](CC(C)C)C(=O)N[C@@H](C)C(N)=O)[C@@H](C)CC)[C@@H](C)CC [GLKKLFSKIKIIGSALKNLA]
MIC (Escherichia coli TOP 10): 1.45 µM (≈ 3.1 µg/mL)

Compound: CC(C)C[C@H](NC(=O)[C@H](CC(C)C)NC(=O)[C@H](CC(C)C)NC(=O)[C@H](CC(C)C)NC(=O)[C@H](CCCCN)NC(=O)[C@H](CCCCN)NC(=O)[C@H](CCCCN)NC(=O)[C@@H](N)CCCCN)C(=O)N[C@@H](CCCN=C(N)N)C(=O)N[C@@H](CCCN=C(N)N)C(N)=O [KKKKLLLLRR]
MIC (Escherichia coli): 386 µM (≈ 500 µg/mL) | MIC [26]: ≥ 386 µM

Compound: CC[C@H](C)[C@H](NC(=O)[C@H](CCCN=C(N)N)NC(=O)[C@H](CCCN=C(N)N)NC(=O)[C@@H](NC(=O)[C@@H](NC(=O)[C@H](CCC(N)=O)NC(=O)[C@@H](N)CCCN=C(N)N)[C@@H](C)CC)[C@@H](C)CC)C(=O)N[C@@H](CCC(N)=O)C(=O)N[C@@H](CCCN=C(N)N)C(N)=O [RQIIRRIQR]
MIC [8]: > 40.4 µM | MIC (Escherichia coli): > 40.4 µM | MIC [27]: ≥ 40.4 µM | MIC (Salmonella sp.): ≥ 40.4 µM | MIC [7]: > 40.4 µM | MIC [21]: > 40.4 µM | MIC (Yersinia enterocolitica): ≥ 40.4 µM

Compound: NCCCC[C@H](NC(=O)[C@H](Cc1c[nH]c2ccccc12)NC(=O)[C@H](Cc1c[nH]c2ccccc12)NC(=O)[C@H](CCCCN)NC(=O)[C@H](Cc1c[nH]c2ccccc12)NC(=O)[C@H](Cc1c[nH]c2ccccc12)NC(=O)[C@@H](N)CCCN=C(N)N)C(N)=O [RWWKWWK]
MIC [28]: ≥ 54.5 µM | MIC [29]: 27.2 µM (≈ 32 µg/mL)

Compound: CC[C@H](C)[C@H](NC(=O)[C@H](CCC(N)=O)NC(=O)[C@H](C)NC(=O)[C@H](Cc1cnc[nH]1)NC(=O)[C@@H]1CCCN1C(=O)[C@H](CCCN=C(N)N)NC(=O)[C@@H](NC(=O)[C@@H](NC(=O)[C@H](C)NC(=O)[C@@H]1CCCN1C(=O)[C@H](CC(N)=O)NC(=O)[C@H](C)NC(=O)[C@@H](N)Cc1ccc(O)cc1)C(C)C)C(C)C)C(=O)N1CCC[C@H]1C(=O)N[C@@H](CCC(N)=O)C(=O)N[C@@H](CCCN=C(N)N)C(=O)O [YANPAVVRPHAQIPQR]
MIC [30]: ≥ 1650 µM | MIC (Escherichia coli): > 1650 µM | MIC (Staphylococcus aureus): > 1650 µM

Other lines, results leading:

MIC [1]: ≥ 256 µM | MIC [2]: > 256 µM | MIC [3]: ≥ 256 µM | MIC [4]: 8 µM (≈ 15 µg/mL) | MIC [5]: 7.5 µM (≈ 14.1 µg/mL) | MIC [6]: ≥ 32 µM | MIC [7]: 3.5 µM (≈ 6.56 µg/mL)
Compound: CC[C@H](C)[C@H](NC(=O)[C@H](CC(C)C)NC(=O)[C@H](C)NC(=O)[C@H](Cc1ccccc1)NC(=O)[C@H](C)N)C(=O)N[C@@H](C)C(=O)NCC(=O)N[C@@H](C)C(=O)N[C@@H](CC(C)C)C(=O)N[C@@H](Cc1ccc(O)cc1)C(=O)N[C@@H](CCCN=C(N)N)C(=O)N[C@H](C(=O)N[C@@H](Cc1ccccc1)C(=O)N[C@@H](Cc1cnc[nH]1)C(=O)N[C@@H](CCCN=C(N)N)C(=O)N[C@@H](CCCN=C(N)N)C(=O)O)[C@@H](C)CC [AFALIAGALYRIFHRR]

MIC [18]: > 20 µM | MIC [19]: 20 µM (≈ 32 µg/mL) | MIC [20]: 20 µM (≈ 32 µg/mL) | MIC [8]: > 20 µM | MIC [2]: > 20 µM | MIC [10]: > 20 µM | MIC [21]: > 20 µM | MIC [22]: ≥ 50 µM
Compound: CC[C@H](C)[C@H](NC(=O)[C@H](CC(=O)O)NC(=O)[C@H](Cc1ccccc1)NC(=O)[C@H](CC(C)C)NC(=O)CN)C(=O)N[C@H](C(=O)N[C@@H](CCCCN)C(=O)N[C@@H](CCCCN)C(=O)N[C@H](C(=O)N[C@H](C(=O)N[C@@H](CCCCN)C(=O)N[C@@H](CC(C)C)C(=O)N[C@@H](CC(C)C)C(=O)N[C@@H](CCCCN)C(N)=O)C(C)C)C(C)C)C(C)C [GLFDIVKKVVKLLK]

MIC [23]: ≥ 64 µM | MIC [24]: 16 µM (≈ 26.9 µg/mL) | MIC (Candida krusei ATCC 6258): ≥ 32 µM | MIC [25]: ≥ 64 µM
Compound: CC[C@H](C)[C@H](N)C(=O)N[C@@H](CC(=O)O)C(=O)N[C@@H](Cc1c[nH]c2ccccc12)C(=O)N[C@@H](Cc1cnc[nH]1)C(=O)N[C@@H](Cc1cnc[nH]1)C(=O)N[C@@H](CC(C)C)C(=O)N[C@@H](CC(C)C)C(=O)N[C@@H](CC(=O)O)C(=O)N[C@@H](C)C(=O)N[C@@H](C)C(=O)N[C@@H](Cc1cnc[nH]1)C(=O)N[C@@H](CCC(N)=O)C(=O)N[C@H](C(=O)N[C@@H](CC(C)C)C(N)=O)[C@@H](C)CC [IDWHHLLDAAHQIL]
